Measurements reported in patent US20210386709A1, “COMPOSITIONS AND METHODS FOR SUPPRESSING MSUT2” (United States Government As Represented By The Department …, priority 2020, published 2021).

Test system: HEK-293 cells
Procedure: Cell culture and cytotoxicity screen. […] Cell viability was assessed as using Promega Cell Titer Glo (Promega G7570) per manufacturer protocol. Briefly, HEK-293 cells were grown to 70% confluence in a 96 well plate were treated with indicated concentrations of compounds and incubated for 72 hours at 37° C. Plates were read for luminescence on Perkin Elmer Enspire Alpha.
Cell viability was assessed. Briefly, HEK-293 cells grown to 70% confluence in a 96 well dish were treated with varying concentrations of compound (final concentration of 2% DMSO) and incubated for 72 hours. Next, Promega Cell Titer Glo assay was used to assess viability per manufacturer instructions (Promega G7570).

SMILES: O=S(=O)(O)c1cc(N=C=S)ccc1C=Cc1ccc(N=C=S)cc1S(=O)(=O)O [4,4-diisothiocyanostilbene-2,2′-sulfonic acid]
- toxicity (effect on cell viability): relatively non-toxic at the doses tested
